Like-named read-outs stand apart in the source and are kept apart here.
How the values were obtained:
[1] = tested on: cyclin D3, cyclin E1, Cdk2, Cdk4, p21Cip1, p27Kip1 in mBM-MSCs; assay: Western blotting of cell cycle regulatory components (cyclins, CDKs, CKIs); type: cell-based, mouse; conditions: 24 h
Method: (§1) Western blotting was performed as described previously. ^16 Briefly, mBM‐MSCs were cultured with indicated doses of bortezomib for 24 h; then, the cells were lysed in radioimmunoprecipitation assay (RIPA) buffer. Equal amount of proteins was loaded on 10% sodium dodecyl sulphate‐polyacrylamide gel electrophoresis (SDS‐PAGE) gel and was then electrotransferred to polyvinylidene difluoride (PVDF) membrane immunoblotted for specific primary antibodies. Immunoblots were visualized using horseradish peroxidase (HRP)‐conjugated secondary antibodies (Jackson ImmunoResearch Laboratories, West Grove, PA, USA) and the enhanced chemiluminescence (ECL) Western Blot Detection Kit (Phygene Life Sciences, Fuzhou, Fujian, China). The chemiluminescent blots were captured by using digital imaging with a charge‐coupled device (CCD) camera system MiniChemi 610 and analysed by Lane 1D™ analysis software (Sage, Beijing, China).

[2] = tested on: Grp78, Chop, Xbp1s, Atf4 in mBM-MSCs; assay: Western blotting of ER stress signalling proteins; type: cell-based, mouse; conditions: 24 h
Method: as §1

[3] = tested on: p21Cip1 and p27Kip1 mRNA in mBM-MSCs; assay: Real-time PCR of p21Cip1 and p27Kip1 mRNA; type: cell-based, mouse; conditions: 24 h
Method: Total RNA from cells was extracted using Ultrapure RNA Kit (DNase I) (CWBIO, Beijing, China) according to the manufacturer's instructions. Reverse transcription was performed using HiFiScript cDNA Synthesis Kit (CWBIO, Beijing, China). Real‐time PCR was performed using UltraSYBR Mixture (CWBIO, Beijing, China) and a CFX96™ Real‐Time PCR Detection System (Bio‐Rad, Hercules, CA, USA). The thermal cycling conditions included 2 min at 50°C and 10 min at 95°C, followed by 40 cycles of 95°C for 15 s, 58°C for 30 s and 72°C for 30 s. Mouse β‐actin was used as internal control. The relative expression levels of each gene were analysed using the 2^‐ΔΔCt method. The primers were designed using Primer3Plus platform (http://www.bioinformatics.nl/primer3plus) and synthesized by Sangon Biotech (Shanghai, China).

[4] = tested on: mBM-MSCs; assay: Cell cycle analysis (propidium iodide, flow cytometry); type: cell-based, mouse; conditions: 24 h; for proportion of S phase cells: mean ± SEM of three experiments (control 32.017 ± 1.991); for percentage of cells in G0/G1 phase: mean ± SEM of three experiments (control 55.14 ± 5.132)
Method: mBM‐MSCs (5 × 10^5 cells) treated with various concentrations of bortezomib for 24 h were harvested, washed with PBS solution, fixed in 70% ethanol and kept at −20°C overnight. Cells were then resuspended in a buffer containing […] propidium iodide and […] RNase A (Solarbio Life Sciences, Beijing, China). Samples were analysed using a BD FACSCanto II flow cytometer. Data were acquired and analysed using CellQuest and ModFit software (BD Biosciences, San Jose, CA, USA).

[5] = tested on: mBM-MSCs; assay: EdU cell proliferation assay (flow cytometry); type: cell-based, mouse; conditions: various concentrations, 24 h
Method: 5‐ethynyl‐2′‐deoxyuridine (EdU) incorporation assay was performed to measure cell proliferation with the kit (Molecular Probes, Eugene, OR, USA) according to the manufacturer's instructions. Briefly, mBM‐MSCs were seeded and grown at a density of 70%‐80% confluence in 35‐mm culture dishes and then treated with various concentrations of bortezomib for 24 h. EdU was added to the culture media 4 h before the harvest. The cells were detected by flow cytometry using a BD FACSCanto II instrument. Data were analysed using FlowJo 7.6.2 software (Tree Star, Ashland, OR, USA).

[6] = tested on: Runx2, Sp7, Col1A1, ALP, OCN/BGLAP in mBM-MSCs; assay: Western blotting of osteogenesis-related proteins; type: cell-based, mouse; conditions: indicated concentrations, 24 h, Figure S1
Method: as §1

[7] = tested on: mBM-MSCs; assay: MTT cell viability assay; conditions: for IC50: Mus musculus, read-out: IC50, cell viability
Method: mBM‐MSCs were seeded at a cell density of 5 × 10^3 cells/mL in 96‐well plates and allowed to attach to the wells for 24 h. Cells were then treated with various concentrations of bortezomib. After 24‐h and 48‐h treatment, 10 µL of 3‐(4,5‐dimethylthiazol‐2‐yl)‐2,5‐diphenyltetrazolium bromide (MTT) solution (Sigma‐Aldrich, Burlington, MA, USA) was added to each well to a final concentration of 0.5 mg/mL. The supernatant medium was then discarded, and a volume of 150 µL of DMSO was added to each well to lyse the crystal. The plates were agitated for 15 min to ensure the dissolution of any remaining crystals. The absorbance in the relevant wells was measured at 490 nm using an Ultra Microplate Reader (ELx800, BioTek Instruments, Winooski, VT, USA). Each experiment was reproduced three times in duplicate.

[8] = tested on: mBM-MSCs; assay: Alizarin Red S staining of mineralized matrix (osteogenic differentiation); type: cell-based, mouse; conditions: 8 days
Method: mBM‐MSCs were plated in 35‐mm‐diameter culture dishes and grown in DMEM containing 10% FBS, 100 U/mL penicillin, 100 μg/mL streptomycin, and 2 mM L‐glutamine at 37°C in a humidified incubator with 5% CO2 in the air. When cell density reached 70%‐80% confluence, the cells were subsequently cultured in the presence or absence of bortezomib at the indicated concentrations for 8 days. The culture medium was changed every 3 days. mBM‐MSCs cultured in an osteogenic induction media containing […] ascorbic acid and 10 mM β‐glycerophosphate sodium were used as a positive control. For Alizarin Red S (ARS) (Solarbio Life Sciences, Beijing, China) staining, mBM‐MSCs were fixed with 4% formaldehyde for 10 min, then rinsed twice with phosphatebuffered saline (PBS) at room temperature. The cells were then stained with 1% ARS (pH 4.2) for up to 15 min at room temperature. Images of mBM‐MSCs stained with ARS were captured and stored digitally.

[9] = MKC3946 10 nM with bortezomib 2.5 nM

Compound: Cn1cc(-c2ccc3c(c2)CCN3C(=O)Cc2cccc(C(F)(F)F)c2)c2c(N)ncnc21 [GSK2606414]
- expression of p21Cip1 (protein) ([1]; in the presence of bortezomib): no significant effects
- expression of p27Kip1 (protein) ([1]; in the presence of bortezomib): no significant effects
- Atf4 (protein) ([2]; in the presence of bortezomib): marked decrease

Compound: CN1CCN(C(=O)c2ccc(-c3ccc4c(C=O)c(O)ccc4c3)s2)CC1 [MKC3946]
- mRNA level of p21Cip1 [3, 9]: aborted up‐regulation
- mRNA level of p27Kip1 [3, 9]: aborted up‐regulation
- cell cycle distribution ([4]; 10 nM MKC3946 alone, Figure S2): no effects
- percentage of S phase ([4]; combination of 10 nM MKC3946 with 2.5 nM bortezomib, Figure S2): significantly decreased
- expression of p21Cip1 (protein) ([1]; in the presence of bortezomib): decrease
- expression of p27Kip1 (protein) ([1]; in the presence of bortezomib): decrease
- bortezomib-induced Xbp1s (protein) ([2]; in the presence of bortezomib): aborted

Compound: CC(C)C[C@H](NC(=O)[C@H](Cc1ccccc1)NC(=O)c1cnccn1)B(O)O [bortezomib, Bortezomib]
- mRNA level of p21Cip1 ([3]; 2.5 nM): significantly up‐regulated
- mRNA level of p27Kip1 ([3]; 2.5 nM): significantly up‐regulated
- proportion of cells in the G2/M phase ([4]; 2.5 nM and 5 nM): no significant change
- proportion of S phase cells ([4]; 2.5 nM): 21.807 ± 2.844%
- percentage of cells in G0/G1 phase ([4]; 2.5 nM): 67.36 ± 6.067%
- proportion of S phase cells ([4]; 5 nM): 19.940 ± 4.321%
- percentage of cells in G0/G1 phase ([4]; 5 nM): 68.117 ± 2.743%
- expression of Cdk2 (protein) ([1]; indicated concentrations): markedly decreased
- expression of Cdk4 (protein) ([1]; indicated concentrations): markedly decreased
- expression of cyclin D3 (protein) ([1]; indicated concentrations): no effects
- expression of cyclin E1 (protein) ([1]; indicated concentrations): no effects
- expression of p21Cip1 (protein) ([1]; indicated concentrations): significantly increased
- expression of p27Kip1 (protein) ([1]; indicated concentrations): significantly increased
- numbers of EdU-positive mBM-MSCs [5]: dose‐dependently decreased
- expression of Atf4 ([2]; indicated concentrations): activated
- expression of ER stress marker Chop ([2]; indicated concentrations): increased expression levels
- expression of ER stress marker Grp78 ([2]; indicated concentrations): increased expression levels
- expression of Xbp1s ([2]; indicated concentrations): activated
- expression of Col1A1 [6]: induce the expression
- expression of Runx2 [6]: induce the expression
- expression of Sp7 [6]: induce the expression
- expression of alkaline phosphatase (ALP) [6]: induce the expression
- expression of osteocalcin (OCN/BGLAP) [6]: induce the expression
- IC50 ([7]; 24 h): 8.89 nM
- IC50 ([7]; 48 h): 6.64 nM
- doses resulting in cytotoxicity to mBM-MSCs ([7]; mBM-MSCs, MTT, 24 h and 48 h): higher than 5 nM
- calcium deposition (ARS staining) versus control cells ([8]; 2.5 nM): much higher amounts of calcium phosphate crystals than the control cells
- calcium deposition (ARS staining) versus control cells ([8]; 5 nM): much higher amounts of calcium phosphate crystals than the control cells

From PMC7417721, “Cell cycle exit during bortezomib‐induced osteogenic differentiation of mesenchymal stem cells was mediated by Xbp1s‐upregulated p21^Cip1 and p27^Kip1” (Journal of Cellular and Molecular Medicine, 2020)
